The values below come from patent publication US6624188B1, “Method of treatment with compounds having retinoid-like activity and reduced skin toxicity and lacking teratogenic effects” (Allergan, Inc., priority 1992, dated 2003).

The structures appear in SMILES notation.

The test system of one test is human sebocyte cultures. The test is described as follows: human sebocyte culture 3H-thymidine incorporation (DNA synthesis, anti-proliferative effect). Format: cell-based. As to conditions: human sebocytes, 8 days treatment, FIG. 2. An excerpt: The retinoid like activity of the compounds used in accordance with the method of treatment of the present invention and of the novel compounds of the invention can be confirmed by several assay procedures. An assay involving human sebocyte cultures measures the inhibition of ^3H-thymidine into cells, and thus measures inhibition of DNA synthesis and thus an anti-proliferative effect on sebocyte (i.e. a sebostatic effect). This assay is also considered a specific assay for effectiveness of a compound as a potential anti-acne drug. The test is conducted as follows.
Face-lift or forehead reduction skins from cosmetic surgeries were used as sources of human sebaceous gland cells (sebocytes).
Isolated sebocytes were plated in type 1 collagen coated-dishes in DMEM/F12 (1:1) medium supplemented with 8% fetal bovine serum, 2% human serum, 10 ng/ml epidermal growth factor, 1 nM cholera toxin, 1 μM hydrocortisone, and penicillin/streptomycin/amphotericin B. Secondary cultures were prepared by plating Dispase dissociated cells in collagen coated 24-well plates.
Sub-confluent secondary cultures were treated with the test compounds or ethanol vehicle every 2-3 days for 8 days in the above medium from which the total serum concentration was reduced to 2% and hydrocortisone was not included. During the last 6 hours of treatment, the cultures were labeled with 2 μCi/ml ^3H-thymidine. DNA from the cells were extracted by thichoroacetic acid and perchloric acid, and assayed for radioactivity by scintillation counting and for content of DNA by the diphenylamine calorimetric method. The results were expressed as CPM/μg DNA, or as per cent of vehicle control which incorporated about 1,000-1,500 cpm/μg DNA.
In general terms: Dividing cells build labelled thymidine or BrdU into new DNA.

For test [1], the system named is tissue transglutaminase (tTGASE) in HL-60 cells. The test is described as follows: Tissue Transglutaminase Assay (tTGASE) in HL-60 Cells. As to conditions: FIGS. 6-9. It counts as cell-based. The protocol:
Other assays in which the retinoid like activity of the compounds used in accordance with the invention are confirmed are the HL-60 transglutaminase induction and HL-60 differentiation assay, the procedures of which are described as follows.
HL-60 cells were grown as a suspension culture in T-162 cm^2 flasks in serum-free RPMI 1640 medium supplemented with insulin (5 μg/ml), transferrin (5 μg/ml), and selenium (3 nM). The cells (1×10^6 cells/well, in 6-well dishes) were treated with serial dilutions of test compounds in the above RPMI 1640 medium which was additionally supplemented with […] dibutyryl cyclic adenosine monophosphate, a component found to be necessary for efficient differentiation of the cells. Ethanol was used in the vehicle control cultures. After 1 days of incubation at 37° C. in a 7.5% CO2 incubator, the cells were collected in a set of tubes and pelleted by centrifugation. The cells were lyzed in a buffer containing 20 mM Tris-HCl, pH 7.5, 1 mM EDTA, and 0.5% Triton X-100. An aliquot of the cell lysate was assayed for tTGASE activity in a reaction mixture containing 20 mM Tris-HCl, pH 7.5, 5 mM CaCl2, 2 mg/ml dimethylcasein, 15 mM B-mercaptoethanol and 50 μCi/ml [2,3-^3H] putrescine dihydrochloride. The reaction was carried out for 60 minutes in a 37° C. shaking water bath. The reaction was stopped by an addition of 10% trichloroacetic acid containing 0.1% putrescein. An aliquot of the stopped reaction mixture was spotted on Whatman 3 MM filter discs. The filter discs, along with the control blank filter discs, were washed twice with 5% trichloroacetic acid containing 0.1% putrescein and twice with methanol. After drying under a heat lamp, the radioactivity in the filter discs was determined by scintillation counting. An aliquot of the cell lysates was also assayed for […] by the Bradford method (Bio-Rad). After subtracting the radioactivity from the control blank filter discs, the data were calculated and expressed as pmol/min/mg protein.
As is well understood in the art, induction of tranglutaminase activity in the just-described assay is an early marker of retinoid like activity.

As to `C/C(=C\c1ccc(C(=O)O)cc1)c1ccc2c(c1)C(C)(C)CCC2(C)C` [AGN 191183, reference compound], the “inhibition of 3H-thymidine incorporation (effectiveness in sebocyte assay)” value in the test on human sebocyte cultures is on record as “not effective”. The “induction of transglutaminase activity” value in test [1] is “inactive”.
